Laboratory results from ChEMBL document CHEMBL5376003, “Structure-Activity Relationship of FL118 Platform Position 7 Versus Position 9-Derived Compounds and Their Mechanism of Action and Antitumor Activity” (J Med Chem, 2023).

Key:
Type in all cases: functional, cell-based
[1] = tested on: HCT-116; test: Growth inhibition of human HCT-116 cells incubated for 48 hrs by MTT reagent based ELISA reader analysis; settings: HCT-116, 48 h
[2] = tested on: HepG2; test: Growth inhibition of human HepG2 cells incubated for 48 hrs by MTT reagent based ELISA reader analysis; settings: HepG2, 48 h
[3] = tested on: MCF7; test: Growth inhibition of human MCF7 cells incubated for 48 hrs by MTT reagent based ELISA reader analysis; settings: MCF7, 48 h
[4] = tested on: HeLa; test: Growth inhibition of human HeLa cells incubated for 48 hrs by MTT reagent based ELISA reader analysis
[5] = tested on: A549; test: Growth inhibition of human A549 cells incubated for 48 hrs by MTT reagent based ELISA reader analysis; settings: A549, 48 h
[6] = tested on: HCT-116; test: Induction of apoptosis in human HCT-116 cells assessed as increase in intracellular ROS level incubated for 48 hrs by DCFH-DA staining based fluorescence microscopy

Row | SMILES | IC50 [1] [µM] | IC50 [2] [µM] | IC50 [3] [µM] | IC50 [4] [µM] | IC50 [5] [µM] | Activity [6]
1 | CC[C@@]1(O)C(=O)OCc2c1cc1n(c2=O)Cc2cc3c(-c4cccc(SC)c4)c4c(cc3nc2-1)OCO4 | 0.134 | 0.19 | 0.0985 | 0.0323 | 0.133 | –
2 | CC[C@@]1(O)C(=O)OCc2c1cc1n(c2=O)Cc2c-1nc1cc3c(cc1c2-c1cccc(OC(C)C)c1)OCO3 | 0.793 | 1 | 0.0641 | 0.143 | 0.4 | –
3 | CC[C@@]1(O)C(=O)OCc2c1cc1n(c2=O)Cc2cc3c(-c4ccc(SC)cc4)c4c(cc3nc2-1)OCO4 | 0.582 | 0.303 | 0.158 | 0.161 | 0.22 | –
4 | CCOc1ccc(-c2c3c(nc4cc5c(cc24)OCO5)-c2cc4c(c(=O)n2C3)COC(=O)[C@]4(O)CC)cc1 | 0.226 | > 1 | 0.064 | 0.0632 | 0.0612 | –
5 | CCCCc1ccc(-c2c3c(cc4nc5c(cc24)Cn2c-5cc4c(c2=O)COC(=O)[C@]4(O)CC)OCO3)cc1 | 0.759 | > 1 | > 1 | > 1 | 0.541 | –
6 | CC[C@@]1(O)C(=O)OCc2c1cc1n(c2=O)Cc2cc3c(-c4ccc(C(F)(F)F)cc4)c4c(cc3nc2-1)OCO4 | 0.934 | > 1 | – | > 1 | 0.803 | Dose-Dependent Effect
7 | CCSc1ccc(-c2c3c(nc4cc5c(cc24)OCO5)-c2cc4c(c(=O)n2C3)COC(=O)[C@]4(O)CC)cc1 | 0.0913 | 0.3 | 0.0725 | 0.0958 | 0.0291 | –
8 | CCOc1cccc(-c2c3c(nc4cc5c(cc24)OCO5)-c2cc4c(c(=O)n2C3)COC(=O)[C@]4(O)CC)c1 | 0.0559 | 0.28 | 0.0478 | 0.0522 | 0.0294 | –
9 | CC[C@@]1(O)C(=O)OCc2c1cc1n(c2=O)Cc2c-1nc1cc3c(cc1c2-c1ccc2c(c1)OCO2)OCO3 | 0.0367 | 0.0611 | 0.0355 | 0.475 | 0.0846 | –
10 | CCc1ccc(-c2c3c(cc4nc5c(cc24)Cn2c-5cc4c(c2=O)COC(=O)[C@]4(O)CC)OCO3)cc1 | 0.697 | > 1 | > 1 | > 1 | 0.265 | –
11 | CC[C@@]1(O)C(=O)OCc2c1cc1n(c2=O)Cc2c-1nc1cc3c(cc1c2-c1ccc(C(C)C)cc1)OCO3 | 0.4 | 0.825 | 0.122 | 0.0614 | 0.052 | –
12 | CCOc1cccc(-c2c3c(cc4nc5c(cc24)Cn2c-5cc4c(c2=O)COC(=O)[C@]4(O)CC)OCO3)c1 | 0.256 | 0.199 | 0.157 | > 1 | 0.111 | –
13 | CCCOc1ccc(-c2c3c(cc4nc5c(cc24)Cn2c-5cc4c(c2=O)COC(=O)[C@]4(O)CC)OCO3)cc1 | 0.564 | > 1 | > 1 | 0.531 | 1 | –
14 | CCCc1ccc(-c2c3c(cc4nc5c(cc24)Cn2c-5cc4c(c2=O)COC(=O)[C@]4(O)CC)OCO3)cc1 | 0.951 | > 1 | > 1 | > 1 | 0.423 | –
15 | CC[C@@]1(O)C(=O)OCc2c1cc1n(c2=O)Cc2cc3c(-c4ccc(C)c(C)c4)c4c(cc3nc2-1)OCO4 | 0.773 | > 1 | > 1 | > 1 | 0.259 | –
16 | CC[C@@]1(O)C(=O)OCc2c1cc1n(c2=O)Cc2c-1nc1cc3c(cc1c2-c1cccc(SC)c1)OCO3 | 0.0461 | 0.0786 | 0.0346 | 0.125 | 0.132 | –
17 | CC[C@@]1(O)C(=O)OCc2c1cc1n(c2=O)Cc2cc3c(-c4cc(C)cc(C)c4)c4c(cc3nc2-1)OCO4 | 0.709 | 0.292 | 0.16 | 0.115 | 0.107 | –
18 | CC[C@@]1(O)C(=O)OCc2c1cc1n(c2=O)Cc2cc3c(-c4cccc(OC(C)C)c4)c4c(cc3nc2-1)OCO4 | 0.183 | 0.161 | 0.149 | 0.161 | 0.149 | –
19 | CC[C@@]1(O)C(=O)OCc2c1cc1n(c2=O)Cc2cc3c(-c4ccc(C(C)C)cc4)c4c(cc3nc2-1)OCO4 | > 1 | > 1 | 0.8 | > 1 | 0.765 | –
20 | CC[C@@]1(O)C(=O)OCc2c1cc1n(c2=O)Cc2c-1nc1cc3c(cc1c2-c1cc(C)cc(C)c1)OCO3 | 0.064 | 0.0454 | 0.0868 | 0.0336 | 0.036 | –
21 | CC[C@@]1(O)C(=O)OCc2c1cc1n(c2=O)Cc2cc3c(-c4cc(OC)cc(OC)c4)c4c(cc3nc2-1)OCO4 | 0.0223 | 0.0281 | 0.0297 | 0.0328 | 0.433 | –

Row | SMILES | IC50 [1] [µM] | IC50 [2] [µM] | IC50 [3] [µM] | IC50 [4] [µM] | IC50 [5] [µM] | Activity [6]
22 | CC[C@@]1(O)C(=O)OCc2c1cc1n(c2=O)Cc2c-1nc1cc3c(cc1c2-c1ccc(C(C)(C)C)cc1)OCO3 | 0.0832 | 0.14 | 0.16 | > 1 | 0.064 | –
23 | CCCc1ccc(-c2c3c(nc4cc5c(cc24)OCO5)-c2cc4c(c(=O)n2C3)COC(=O)[C@]4(O)CC)cc1 | 0.118 | 0.827 | 0.064 | 0.0594 | 0.051 | –
24 | CCCCOc1ccc(-c2c3c(cc4nc5c(cc24)Cn2c-5cc4c(c2=O)COC(=O)[C@]4(O)CC)OCO3)cc1 | 0.782 | 0.569 | 0.344 | 0.593 | 0.617 | –
25 | CC[C@@]1(O)C(=O)OCc2c1cc1n(c2=O)Cc2cc3c(-c4ccc(C(C)(C)C)cc4)c4c(cc3nc2-1)OCO4 | > 1 | > 1 | > 1 | 0.674 | 0.91 | –
26 | CCOc1ccc(-c2c3c(cc4nc5c(cc24)Cn2c-5cc4c(c2=O)COC(=O)[C@]4(O)CC)OCO3)cc1 | 0.176 | > 1 | > 1 | > 1 | 0.296 | –
27 | CC[C@@]1(O)C(=O)OCc2c1cc1n(c2=O)Cc2cc3c(-c4cccc(OC)c4)c4c(cc3nc2-1)OCO4 | > 1 | > 1 | > 1 | > 1 | 0.991 | –
28 | CC[C@@]1(O)C(=O)OCc2c1cc1n(c2=O)Cc2c-1nc1cc3c(cc1c2-c1ccc(OC(C)C)cc1)OCO3 | < 0.0064 | 0.16 | 0.0528 | 0.506 | 0.142 | –
29 | CCSc1ccc(-c2c3c(cc4nc5c(cc24)Cn2c-5cc4c(c2=O)COC(=O)[C@]4(O)CC)OCO3)cc1 | 0.62 | 0.401 | > 1 | > 1 | 0.211 | –
30 | CCCCOc1ccc(-c2c3c(nc4cc5c(cc24)OCO5)-c2cc4c(c(=O)n2C3)COC(=O)[C@]4(O)CC)cc1 | 0.235 | > 1 | > 1 | > 1 | > 1 | –
31 | CC[C@@]1(O)C(=O)OCc2c1cc1n(c2=O)Cc2cc3c(-c4ccc5c(c4)OCO5)c4c(cc3nc2-1)OCO4 | 0.0592 | 0.351 | 0.0326 | 0.0325 | 0.111 | –
32 | CC[C@@]1(O)C(=O)OCc2c1cc1n(c2=O)Cc2cc3c(-c4ccc(OC)cc4)c4c(cc3nc2-1)OCO4 | 0.163 | 0.527 | 0.161 | > 1 | 0.163 | –
33 | CC[C@@]1(O)C(=O)OCc2c1cc1n(c2=O)Cc2c-1nc1cc3c(cc1c2-c1ccc(C)c(C)c1)OCO3 | 0.0223 | 0.064 | 0.0453 | 0.364 | 0.0221 | –
34 | CC[C@@]1(O)C(=O)OCc2c1cc1n(c2=O)Cc2c-1nc1cc3c(cc1c2-c1ccc(SC)cc1)OCO3 | 0.0618 | 0.0519 | 0.0534 | 0.0587 | 0.0273 | –
35 | CC[C@@]1(O)C(=O)OCc2c1cc1n(c2=O)Cc2c-1nc1cc3c(cc1c2-c1cccc(OC)c1)OCO3 | 0.0485 | 0.0148 | 0.0958 | 0.0883 | 0.0214 | –
36 | CCCOc1ccc(-c2c3c(nc4cc5c(cc24)OCO5)-c2cc4c(c(=O)n2C3)COC(=O)[C@]4(O)CC)cc1 | 0.562 | 0.993 | 0.053 | > 1 | 0.225 | –
37 | CC[C@@]1(O)C(=O)OCc2c1cc1n(c2=O)Cc2c-1nc1cc3c(cc1c2-c1ccc([Si](C)(C)C)cc1)OCO3 | 0.0563 | 0.074 | 0.863 | > 1 | 0.321 | –
38 | CC[C@@]1(O)C(=O)OCc2c1cc1n(c2=O)Cc2cc3c(-c4cc(OC)c(OC)c(OC)c4)c4c(cc3nc2-1)OCO4 | 0.137 | 0.952 | 0.757 | 0.14 | 1 | –
39 | CCCCc1ccc(-c2c3c(nc4cc5c(cc24)OCO5)-c2cc4c(c(=O)n2C3)COC(=O)[C@]4(O)CC)cc1 | 0.513 | > 1 | 0.0605 | 0.115 | 0.0549 | –
40 | CC[C@@]1(O)C(=O)OCc2c1cc1n(c2=O)Cc2c-1nc1cc3c(cc1c2-c1cccc(C)c1)OCO3 | 0.0218 | 0.134 | 0.0386 | 0.144 | 0.115 | –
41 | CC[C@@]1(O)C(=O)OCc2c1cc1n(c2=O)Cc2c-1nc1cc3c(cc1c2-c1cc(OC)c(OC)c(OC)c1)OCO3 | 0.0396 | 0.738 | 0.101 | 0.2 | 0.14 | –
